Measurements as given in publication PMC8689648, “Binding Affinity Determines Substrate Specificity and Enables Discovery of Substrates for N-Myristoyltransferases” (ACS Catalysis, 2021).
Read-outs that look alike come from different tables or passages of the source. Each block holds one molecule with its values, some of them ahead of it.

Experiments:
[1] = molecular target: T1, N-myristoyltransferase 1 (NMT1) (Homo sapiens, UniProt P30419); assay: steady-state inhibition kinetics of myristoylation of ARF6 peptide (HPLC), recombinant NMT1; type: biochemical
T1 sequence (P30419 1-496): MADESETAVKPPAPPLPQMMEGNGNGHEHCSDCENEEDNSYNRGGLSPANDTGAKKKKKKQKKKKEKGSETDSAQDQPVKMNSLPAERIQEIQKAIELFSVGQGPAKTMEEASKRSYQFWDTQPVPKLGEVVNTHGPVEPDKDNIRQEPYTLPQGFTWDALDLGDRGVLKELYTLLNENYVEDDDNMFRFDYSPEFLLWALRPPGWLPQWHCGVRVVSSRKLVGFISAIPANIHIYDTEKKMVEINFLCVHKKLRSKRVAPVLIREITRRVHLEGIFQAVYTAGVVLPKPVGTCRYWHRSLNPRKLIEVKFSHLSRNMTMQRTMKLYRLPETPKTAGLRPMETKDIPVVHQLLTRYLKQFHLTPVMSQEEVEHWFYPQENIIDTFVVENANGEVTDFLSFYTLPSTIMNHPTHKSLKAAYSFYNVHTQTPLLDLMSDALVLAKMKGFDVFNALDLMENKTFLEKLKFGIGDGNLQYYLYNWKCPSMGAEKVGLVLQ

[2] = molecular target: T1, N-myristoyltransferase 1 (NMT1); assay: steady-state inhibition kinetics of acetylation of ARF6 peptide (HPLC), recombinant NMT1; type: biochemical
[3] = molecular target: T1, N-myristoyltransferase 1 (NMT1); assay: steady-state kinetics with ARF6 peptide (HPLC, MS); Kia from ordered Bi-Bi global fit; type: biochemical
[4] = molecular target: T2, human N-myristoyltransferase 1 (NMT1) (human) (UniProt P30419)
T2 sequence: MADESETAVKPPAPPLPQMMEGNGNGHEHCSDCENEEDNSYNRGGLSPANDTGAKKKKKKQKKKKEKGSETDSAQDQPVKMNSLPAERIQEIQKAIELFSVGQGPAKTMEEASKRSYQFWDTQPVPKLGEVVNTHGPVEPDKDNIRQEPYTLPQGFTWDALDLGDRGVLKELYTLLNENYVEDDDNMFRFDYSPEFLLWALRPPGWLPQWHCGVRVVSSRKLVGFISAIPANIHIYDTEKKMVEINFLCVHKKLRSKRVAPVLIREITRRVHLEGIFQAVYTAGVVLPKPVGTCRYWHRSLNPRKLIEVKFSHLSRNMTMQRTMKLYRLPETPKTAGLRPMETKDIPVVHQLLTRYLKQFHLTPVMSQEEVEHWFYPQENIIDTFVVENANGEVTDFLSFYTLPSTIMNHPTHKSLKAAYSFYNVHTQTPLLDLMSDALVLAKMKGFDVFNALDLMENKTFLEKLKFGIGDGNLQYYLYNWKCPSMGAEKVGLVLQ

Molecule: CC(=O)SCCNC(=O)CCNC(=O)[C@H](O)C(C)(C)COP(=O)(O)OP(=O)(O)OC[C@H]1O[C@@H](n2cnc3c(N)ncnc32)[C@H](O)[C@@H]1OP(=O)(O)O [Ac-CoA, acetyl-CoA]
Kd ([3]; read-out: Kia): 2.4 ± 0.5 µM

Molecule: CCCCCCCCCCCCCC(=O)SCCNC(=O)CCNC(=O)[C@H](O)C(C)(C)COP(=O)(O)OP(=O)(O)OC[C@H]1O[C@@H](n2cnc3c(N)ncnc32)[C@H](O)[C@@H]1OP(=O)(O)O [Myr-CoA, myristoyl-CoA]
Kd [3]: 0.2 ± 0.1 µM

Molecule: GKVLSKIFWW [ARF6 N-terminal peptide (…)]
Kpep (Michaelis constant Km for ARF6 peptide) of NMT1-catalysed acetylation, Ac-CoA as the first substrate; 50 mM TriCl pH 8.0, 37 °C [4]: 40 μM
Kpep (Michaelis constant Km for ARF6 peptide) of NMT1-catalysed myristoylation, Myr-CoA as the first substrate; 50 mM TriCl pH 8.0, 37 °C [4]: 5 μM

Further lines, results first:

Ki [1]: 0.0147 ± 0.0022 µM
Molecule: CCCCCCCCCCCCCC(=O)CSCCNC(=O)CCNC(=O)[C@H](O)C(C)(C)COP(=O)(O)OP(=O)(O)OC[C@H]1O[C@@H](n2cnc3c(N)ncnc32)[C@H](O)[C@@H]1OP(=O)(O)O [S-(2-oxo)pentadecyl-CoA]

Ki [2]: 10.1 ± 2.2 µM
Molecule: CC(=O)CSCCNC(=O)CCNC(=O)[C@H](O)C(C)(C)COP(=O)(O)OP(=O)(O)OC[C@H]1O[C@@H](n2cnc3c(N)ncnc32)[C@H](O)[C@@H]1OP(=O)(O)O [S-acetonyl-CoA]
